Source: patent US11623924B2, “Modulators of alpha-1 antitrypsin” (Vertex Pharmaceuticals Incorporated, priority 2018, dated 2023)

Molecular target: T1, NL20 human bronchial epithelial cells expressing human Z-AAT (Homo sapiens, UniProt P01009, E366K)
T1 construct: expressed in transfected cells; host or cells: NL20 human bronchial epithelial cells (NL20-SI line, doxycycline added)
Test: AAT Function Assay (MSD Assay NL20-SI Cell Line)
Type: cell-based
Settings: NL20 Func. (EC50), functionally active AAT (AAT-hNE complex) in supernatant of NL20 cells expressing human Z-AAT
Procedure, shortened: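 NL20 cells expressing Z-AAT, seeded 16,000 cells/well, received compound with doxycycline (0.1 μM final) and were incubated overnight at 37° C. Supernatants, diluted 45-fold in total, reacted with excess human neutrophil elastase; AAT-elastase complex captured on anti-AAT plates, detected with Sulfo-tagged anti-elastase by MSD electrochemiluminescence, and quantified against M-AAT standards (0.156-320 ng/mL).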

T1 sequence (P01009 25-418 E366K): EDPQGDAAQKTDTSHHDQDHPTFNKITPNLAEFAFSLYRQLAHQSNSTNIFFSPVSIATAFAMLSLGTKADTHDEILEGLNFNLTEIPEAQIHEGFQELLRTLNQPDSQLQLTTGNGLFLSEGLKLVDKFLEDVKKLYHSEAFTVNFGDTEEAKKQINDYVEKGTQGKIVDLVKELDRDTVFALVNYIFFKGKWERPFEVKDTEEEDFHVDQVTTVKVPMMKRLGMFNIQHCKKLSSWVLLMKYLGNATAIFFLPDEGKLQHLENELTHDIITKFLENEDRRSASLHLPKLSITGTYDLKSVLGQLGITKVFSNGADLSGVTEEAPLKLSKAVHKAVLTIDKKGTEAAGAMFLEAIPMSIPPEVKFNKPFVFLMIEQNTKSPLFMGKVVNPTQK

Row | Compound | EC50 [µM]
1 | CC(C)c1c(CCC(=O)O)c2cc3[nH]ncc3nc2n1-c1ccc(F)cc1 [Compound 202, 3-[4-(4-fluorophenyl)-5-isopropyl-2,4,10,11-tetrazatricyclo[7.3.0.03,7]dodeca-1,3(7),5,8,11-pentaen-6-yl]propanoic Acid] | > 3
2 | CC(C)c1c(CCC(=O)O)c2nc3[nH]ncc3nc2n1-c1ccc(F)cc1 [Compound 204, 3-[10-(4-fluorophenyl)-11-isopropyl-2,4,5,8,10-pentazatricyclo[7.3.0.03,7]dodeca-1,3(7),5,8,11-pentaen-12-yl]propanoic Acid] | > 3

Same assay, conditions: functionally active AAT (AAT-hNE complex) in supernatant of NL20 cells expressing human Z-AAT; read-out: NL20 Func. (EC50)

Row | Compound | EC50 [µM]
3 | COCC(C)(C)c1c(CCCNC(N)=O)c2cc3[nH]ncc3cc2n1-c1ccc(F)cc1 [Compound 180] | 1.16 to 3
4 | N#Cc1n[nH]c2cc3c(C4CC5(CC(C(=O)O)C5)C4)c(C4CCOCC4)n(-c4ccc(F)c(F)c4)c3cc12 (stereo not shown) [Compound 186, 6-[3-cyano-5-(3,4-difluorophenyl)-6-tetrahydropyran-4-yl-1H-pyrrolo[2,3-f]indazol-7-yl]spiro[3.3]heptane-2-carboxylic Acid] | > 3
5 | [2H]c1c([2H])c(-n2c(C(C)C)c(CCC(=O)O)c3cc4[nH]ncc4cc32)c([2H])c([2H])c1F [Compound 188, 3-[6-isopropyl-5-(2,3,5,6-tetradeuterio-4-fluoro-phenyl)-1H-pyrrolo[2,3-f]indazol-7-yl]propanoic Acid] | 1.16 to 3
6 | [2H]c1n[nH]c2c([2H])c3c(CC([2H])([2H])C(=O)O)c(C([2H])(C)C)n(-c4ccc(F)cc4)c3c([2H])c12 [Compound 189, 2,2-dideuterio-3-[3,4,8-trideuterio-6-(1-deuterio-1-methyl-ethyl)-5-(4-fluorophenyl)-1H-pyrrolo[2,3-f]indazol-7-yl]propanoic Acid] | 1.16 to 3
7 | CC(C)c1c(CCC(=O)O)n(-c2ccc(F)cc2)c2cc3cn[nH]c3cc12 [Compound 194, 3-[5-(4-fluorophenyl)-7-isopropyl-1H-pyrrolo[2,3-f]indazol-6-yl]propanoic Acid] | > 3
8 | CCCn1c(C2CCOCC2)c(C2CC3(CC(C(=O)O)C3)C2)c2cc3[nH]ncc3cc21 (stereo not shown) [Compound 196, 6-(5-propyl-6-tetrahydropyran-4-yl-1H-pyrrolo[2,3-f]indazol-7-yl)spiro[3.3]heptane-2-carboxylic Acid] | > 3
9 | Cc1cc(-n2c(C(C)C)c(S(C)(=O)=O)c3cc4[nH]nnc4cc32)ccc1F [Compound 199, 5-(4-fluoro-3-methyl-phenyl)-6-isopropyl-7-methylsulfonyl-1H-pyrrolo[2,3-f]benzotriazole] | > 3
10 | CC(C)c1c(CCC(=O)O)c2cc3[nH]ccc3cc2n1-c1ccc(F)cc1 [Compound 200, 3-[1-(4-fluorophenyl)-2-isopropyl-5H-pyrrolo[2,3-f]indol-3-yl]propanoic Acid] | > 3
11 | CC(C)c1c(CCC(=O)O)c2cc3cn[nH]c3cc2n1-c1ccc(F)cc1 [Compound 201, 3-[7-(4-fluorophenyl)-6-isopropyl-1H-pyrrolo[3,2-f]indazol-5-yl]propanoic Acid] | > 3
12 | CC(C)c1c(-c2ccc(Cl)cc2)c2cc3cn[nH]c3cc2n1CCC(=O)O [Compound 206, 3-[5-(4-chlorophenyl)-6-isopropyl-1H-pyrrolo[3,2-f]indazol-7-yl]propanoic Acid] | 1.16 to 3
13 | C=C(C)c1c(C23CC(C(=O)OC)(C2)C3)c2cc3[nH]ncc3cc2n1-c1ccc(F)cc1 [Compound 207, methyl 3-[5-(4-fluorophenyl)-6-isopropenyl-1H-pyrrolo[2,3-f]indazol-7-yl]bicyclo[1.1.1]pentane-1-carboxylate] | > 3

The remaining lines, values ahead:

Row | EC50 [µM] | Compound
14 | > 3 | COCC(C)(C)c1c(CCCN)c2cc3[nH]ncc3cc2n1-c1ccc(F)cc1 [Compound 179]
15 | > 3 | COCC(C)(C)c1c(CCCNC(=O)OCc2ccccc2)c2cc3[nH]ncc3cc2n1-c1ccc(F)cc1 [Compound 181]
16 | 1.16 to 3 | COCC(C)(C)c1c(CC2CCS(=O)(=O)CC2)c2cc3[nH]ncc3cc2n1-c1ccc(F)cc1 [Compound 182]
17 | > 3 | COCC(C)(C)c1c(CCC(N)=O)c2cc3[nH]ncc3cc2n1-c1ccc(F)cc1 [Compound 183]
18 | > 3 | C[C@H](O)C(=O)N1CC2(CC(c3c(C4CCOCC4)n(-c4ccc(F)c(F)c4)c4cc5cn[nH]c5cc34)C2)C1 [Compound 184, (2S)-1-[6-[5-(3,4-difluorophenyl)-6-tetrahydropyran-4-yl-1H-pyrrolo[2,3-f]indazol-7-yl]-2-azaspiro[3.3]heptan-2-yl]-2-hydroxy-propan-1-one]
19 | 1.16 to 3 | C[C@@H](O)C(=O)N1CC2(CC(c3c(C4CCOCC4)n(-c4ccc(F)c(F)c4)c4cc5cn[nH]c5cc34)C2)C1 [Compound 185, (2R)-1-[6-[5-(3,4-difluorophenyl)-6-tetrahydropyran-4-yl-1H-pyrrolo[2,3-f]indazol-7-yl]-2-azaspiro[3.3]heptan-2-yl]-2-hydroxy-propan-1-one]
20 | > 3 | CC(C)(CC#N)c1c(CCC(=O)O)c2cc3[nH]ncc3cc2n1-c1ccc(F)cc1 [Compound 190, 3-[6-(2-cyano-1,1-dimethyl-ethyl)-5-(4-fluorophenyl)-1H-pyrrolo[2,3-f]indazol-7-yl]propanoic Acid]
21 | > 3 | CC(C)(CC#N)c1c(CCC(N)=O)c2cc3[nH]ncc3cc2n1-c1ccc(F)cc1 [Compound 191, 3-[6-(2-cyano-1,1-dimethyl-ethyl)-5-(4-fluorophenyl)-1H-pyrrolo[2,3-f]indazol-7-yl]propanamide]
22 | 1.16 to 3 | C=C(C)c1c(CCC(=O)O)c2cc3[nH]ncc3cc2n1-c1ccc(F)cc1 [Compound 192, 3-[5-(4-fluorophenyl)-6-isopropenyl-1H-pyrrolo[2,3-f]indazol-7-yl]propanoic Acid]
23 | 1.16 to 3 | [2H]C([2H])([2H])C([2H])(c1c(CCC(=O)O)c2cc3[nH]ncc3cc2n1-c1ccc(F)cc1)C([2H])([2H])[2H] [Compound 193, 3-[5-(4-fluorophenyl)-6-[1,2,2,2-tetradeuterio-1-(trideuteriomethyl)ethyl]-1H-pyrrolo[2,3-f]indazol-7-yl]propanoic Acid]
24 | > 3 | Cc1cc(-n2c(C(C)C)c(CCC(=O)O)c3cc4c(cnn4C)cc32)ccc1F [Compound 195, 3-[5-(4-fluoro-3-methyl-phenyl)-6-isopropyl-1-methyl-pyrrolo[2,3-f]indazol-7-yl]propanoic Acid]
25 | > 3 | CC1(c2c(S(C)(=O)=O)c3cc4[nH]ncc4cc3n2-c2ccc(F)cc2)COC1 [Compound 197, 5-(4-fluorophenyl)-6-(3-methyloxetan-3-yl)-7-methylsulfonyl-1H-pyrrolo[2,3-f]indazole]
26 | > 3 | O=C(O)CCc1c(C2CNC2)n(-c2ccc(F)cc2)c2cc3cn[nH]c3cc12 [Compound 198, 3-[6-(azetidin-3-yl)-5-(4-fluorophenyl)-1H-pyrrolo[2,3-f]indazol-7-yl]propanoic Acid]
27 | > 3 | CC(C)c1c(CCC(=O)O)c2nc3[nH]ncc3cc2n1-c1ccc(F)cc1 [Compound 203, 3-[10-(4-fluorophenyl)-11-isopropyl-2,4,5,10-tetrazatricyclo[7.3.0.03,7]dodeca-1,3(7),5,8,11-pentaen-12-yl]propanoic Acid]
28 | 1.16 to 3 | CC(C)c1c(-c2ccc(F)cc2)c2cc3cn[nH]c3cc2n1CCC(=O)O [Compound 205, 3-[5-(4-fluorophenyl)-6-isopropyl-1H-pyrrolo[3,2-f]indazol-7-yl]propanoic Acid]
